The test concerns the target T1, bovine trypsin (Bos taurus, UniProt P00760).
T1 sequence (P00760 24-246): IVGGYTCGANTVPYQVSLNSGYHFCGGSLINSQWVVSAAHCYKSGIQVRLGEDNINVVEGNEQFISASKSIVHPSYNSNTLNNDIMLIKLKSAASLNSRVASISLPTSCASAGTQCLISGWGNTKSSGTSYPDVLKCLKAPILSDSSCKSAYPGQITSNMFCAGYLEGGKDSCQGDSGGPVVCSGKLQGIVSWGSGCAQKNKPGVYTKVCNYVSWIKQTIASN
The test can be described thus: Trypsin inhibitory activity of peptides (BApNA hydrolysis, OD405; IC50, Ki, residual activity). It is filed as biochemical. Here is the method:
The substrates N-succinyl-Ala-Ala-Pro-Phe-p-nitroaniline (AAPFpNA), Nα—Benzoyl-L-arginine-4-nitroaniline hydrochloride (BApNA) and N-succinyl-[…] (AAApNA) are used in competitive binding reaction to determine the inhibitory activities against α-chymotrypsin, bovine trypsin, and porcine pancreatic elastase, respectively. Experiments for α-chymotrypsin and bovine trypsin inhibition were measured in 20 mM CaCl2, 50 mM Tris-HCl buffer (pH 7.8), and that for porcine elastase inhibition was measured in 50 mM Tris-HCl buffer (pH 8.0). The concentration of the peptide was measured using optical density (OD) at 280 nm. The Michaelis constant (Km) of the enzyme hydrolysis substrate is calculated from the initial rate of substrate hydrolysis at 405 nm. The absorbance value of the substrate was measured at 405 nm after complete hydrolysis. All data were processed using nonlinear regression.
• (1) Added 200 μL of reaction buffer (20 mM CaCl2 and 50 mM Tris-HCl, pH 7.8) into the 96-well plate, and preheated at 37° C. for 15 min. Then added 5 μL of different concentrations of substrates (p-Nitroanilide, pNA, 0.5% in DMSO), and mixed by centrifugation at 500 rpm for 1 min. […] The experiment was performed in triplicate. The standard curve was obtained by plotting the OD405 nm value with pNA concentration. • (2) Added 190 μL of reaction buffer (20 mM CaCl2 and 50 mM Tris-HCl, pH 7.8) and 10 μL of 1 μM trypsin into the 96-well plate, and preheated at 37° C. for 15 min. Then added 5 μL of different concentrations of substrates (BApNA, 0.5% in DMSO) and mixed by centrifugation at 500 rpm for 1 min. […] The experiment was performed in triplicate. The corresponding curve was obtained by plotting the OD405 nm value with time. Divided the slope of the curve by the slope of the standard curve and the enzyme concentration to obtain the initial velocity V0 (mM/(min*mM protein). Plotted the initial velocity V0 with the concentration of substrate BApNA using Prism software, and the Michaelis constant Km value of trypsin hydrolyzing BApNA was obtained.
• (1) Added a total 190 μL of reaction buffer (20 mM CaCl2 and 50 mM Tris-HCl, pH 7.8) along with different concentrations of anti-trypsin peptides (BTs) into the pre-cooled 96-well plate, followed by preheating at 37° C., and spined down at 500 rpm for 5 min. Next added 10 μL of 1 μM trypsin, incubated at 37° C., and then spined down at 500 rpm for 10 min. Finally, added 5 μL of 50 mM BApNA, and mixed by centrifugation at 500 rpm for 1 min. The plate was incubated at 37° C. for 260 min, and the absorbance value at 405 nm was measured. The experiment was performed in triplicate. The blank control only contained the reaction buffer and the substrate as the minimum absorption value (Min OD405 nm). The negative control only contained the reaction buffer, the enzyme and the substrate as the maximum absorption value (Max OD405 nm). • (2) In the reaction system of 205 μL, the final concentrations of trypsin and BApNA were 50 nM and 1.22 mM, respectively. • (3) Data statistics
Residual activity of the enzyme (%)=(1−(Max OD405 nm−Sample OD405 nm)/(Max OD405 nm−Min OD405 nm))*100
Plotted the residual activity of the enzyme with […] to obtain the half inhibitory concentration (IC50) of BTs scaffold against trypsin. Then, substituted it into the formula Ki=IC50/(1+S/Km) (S, IC50 and Km were substrate concentration, half inhibitory concentration and Michaelis constant, respectively) to obtain the inhibition constant Ki of BTs scaffold against trypsin.

Bridge positions count the residues as written; N and C are the ends. Peptide text beside a SMILES is read from it. Bounds are passed on as bounds.

Usually Ki stands for a dissociation constant, usually derived from enzyme kinetics or from competition with a known ligand. As a reminder, the IC50 is the midpoint of a concentration-inhibition curve.

Take `CC[C@H](C)[C@@H]1NC(=O)[C@@H]2CCCN2C(=O)[C@@H]2CCCN2C(=O)[C@H]([C@@H](C)CC)NC(=O)[C@H](CO)NC(=O)[C@H](CCCNC(=N)N)NC(=O)[C@H]([C@@H](C)O)NC(=O)[C@H](C)NC(=O)[C@H](CCCNC(=N)N)NC(=O)CNC(=O)[C@@H](N)CSSC[C@@H](C(=O)N[C@@H](Cc2ccccc2)C(=O)O)NC1=O` [BT17] (H-CGRATRSIPPICF-OH; disulfide 1-12; C-terminus assumed): the “inhibitory activity against trypsin (in words)” value (“inhibitory activity … (in words)” below) was “excellent trypsin inhibitory activities”. Also, the Ki (Ki=IC50/(1+S/Km), Km 0.33 mM, read-out: Ki) is 120 nM. Moreover, where the note is “peptide 0.00098 μM”, the Residual trypsin activity was 97.9 ± 0.8%. In addition, the Residual trypsin activity (peptide 0.0098 μM) was 97.5 ± 0.7%. Besides, the Residual trypsin activity (peptide 0.098 μM) was 93.6 ± 4.5%. Under “peptide 0.488 μM”, the Residual trypsin activity stood at 61.9 ± 3.0%. Further, the Residual trypsin activity (peptide 0.7317 μM) turned out to be 30.0 ± 5.3%. Also, the Residual trypsin activity (peptide 0.98 μM) turned out to be 1.5 ± 0.3%. Further, the Residual trypsin activity (peptide 9.76 μM) was determined as 0.1 ± 0.0%. Also, the Residual trypsin activity (peptide 97.56 μM) was 0.1 ± 0.0%. Moreover, under “trypsin”, the “decrease in inhibitory activity compared to BT9” value is approximately 12 fold.

Take `CC[C@H](C)[C@@H]1NC(=O)[C@@H]2CCCN2C(=O)[C@@H]2CCCN2C(=O)[C@H]([C@@H](C)CC)NC(=O)[C@H](CO)NC(=O)[C@H](CCCNC(=N)N)NC(=O)[C@H]([C@@H](C)O)NC(=O)[C@H](C)NC(=O)[C@H](CCCNC(=N)N)NC(=O)CNC(=O)[C@@H](N)CSSC[C@@H](C(=O)N[C@@H](Cc2ccc(O)cc2)C(=O)O)NC1=O` [BT18] (H-CGRATRSIPPICY-OH; disulfide 1-12; N-terminus and C-terminus assumed): the “inhibitory activity … (in words)” value is recorded as “significant impact on their anti-trypsisn activities”.

`CC[C@H](C)[C@@H]1NC(=O)[C@@H]2CCCN2C(=O)[C@@H]2CCCN2C(=O)[C@H]([C@@H](C)CC)NC(=O)[C@H](CO)NC(=O)[C@H](CCCNC(=N)N)NC(=O)[C@H]([C@@H](C)O)NC(=O)[C@H](C)NC(=O)[C@H](CCCNC(=N)N)NC(=O)CNC(=O)[C@@H](N)CSSC[C@@H](C(=O)N[C@@H](C)C(=O)O)NC1=O` [BT19] (H-CGRATRSIPPICA-OH; disulfide 1-12; N-terminus and C-terminus assumed): the “inhibitory activity … (in words)” value is given as “significant impact on their anti-trypsisn activities”.

Turning to `CC[C@H](C)[C@@H]1NC(=O)[C@H](CO)NC(=O)[C@H](CCCNC(=N)N)NC(=O)[C@H]([C@@H](C)O)NC(=O)[C@H](C)NC(=O)[C@H](CCCNC(=N)N)NC(=O)CNC(=O)[C@@H](N)CSSC[C@@H](C(=O)N[C@@H](Cc2ccccc2)C(=O)O)NC(=O)[C@H]([C@@H](C)CC)NC(=O)[C@@H]2CCCN2C(=O)[C@H](C)NC1=O` [BT20] (H-CGRATRSIAPICF-OH; disulfide 1-12 (inferred); N-terminus and C-terminus assumed), the IC50 (trypsin 50 nM, BApNA 1.22 mM, read-out: IC50) was more than 50000 nM.

In the case of `CC[C@H](C)[C@@H]1NC(=O)[C@@H]2CCCN2C(=O)[C@@H]2CCCN2C(=O)[C@H](C)NC(=O)[C@H](CO)NC(=O)[C@H](CCCNC(=N)N)NC(=O)[C@H]([C@@H](C)O)NC(=O)[C@H](C)NC(=O)[C@H](CCCNC(=N)N)NC(=O)CNC(=O)[C@@H](N)CSSC[C@@H](C(=O)N[C@@H](Cc2ccccc2)C(=O)O)NC1=O` [BT21] (H-CGRATRSAPPICF-OH; disulfide 1-12; N-terminus and C-terminus assumed), the “inhibitory activity … (in words)” value was “reduced their anti-trypsin activities”.

Take `CC[C@H](C)[C@@H]1NC(=O)[C@@H]2CCCN2C(=O)[C@@H]2CCCN2C(=O)[C@H]([C@@H](C)CC)NC(=O)[C@H](C)NC(=O)[C@H](CCCNC(=N)N)NC(=O)[C@H]([C@@H](C)O)NC(=O)[C@H](C)NC(=O)[C@H](CCCNC(=N)N)NC(=O)CNC(=O)[C@@H](N)CSSC[C@@H](C(=O)N[C@@H](Cc2ccccc2)C(=O)O)NC1=O` [BT22] (H-CGRATRAIPPICF-OH; disulfide 1-12; N-terminus and C-terminus assumed): the “inhibitory activity … (in words)” value is “reduced their anti-trypsin activities”.

For `CC[C@H](C)[C@@H]1NC(=O)[C@@H]2CCCN2C(=O)[C@@H]2CCCN2C(=O)[C@H]([C@@H](C)CC)NC(=O)[C@H](CO)NC(=O)[C@H](CCCCN)NC(=O)[C@H]([C@@H](C)O)NC(=O)[C@H](C)NC(=O)[C@H]([C@@H](C)O)NC(=O)CNC(=O)[C@@H](N)CSSC[C@@H](C(=O)N[C@@H](CC(N)=O)C(=O)O)NC1=O` [BT24] (H-CGTATKSIPPICN-OH; disulfide 1-12; N-terminus and C-terminus assumed), the “inhibitory activity … (in words)” value was “significant impact on their anti-trypsisn activities”.

As to `CC[C@H](C)[C@@H]1NC(=O)[C@@H]2CCCN2C(=O)[C@@H]2CCCN2C(=O)[C@H]([C@@H](C)CC)NC(=O)[C@H](CO)NC(=O)[C@H](CCCCN)NC(=O)[C@H]([C@@H](C)O)NC(=O)[C@H](C)NC(=O)[C@H]([C@@H](C)O)NC(=O)CNC(=O)[C@@H](N)CSSC[C@@H](C(=O)N[C@@H](Cc2ccccc2)C(=O)O)NC1=O` [BT25] (H-CGTATKSIPPICF-OH; disulfide 1-12; C-terminus assumed), the “inhibitory activity … (in words)” value is reported as “excellent trypsin inhibitory activities”. Further, the Residual trypsin activity (peptide 0.00098 μM) came out at 100.6 ± 1.3%. Further, the Residual trypsin activity (peptide 0.0098 μM) came out at 99.6 ± 1.4%. The Residual trypsin activity (peptide 0.098 μM) turned out to be 100.4 ± 1.2%. The Residual trypsin activity (peptide 0.7317 μM) is 82.3 ± 3.9%. For the setting “peptide 0.98 μM”, the Residual trypsin activity is given as 49.7 ± 3.5%. Also, for the setting “peptide 1.2195 μM”, the Residual trypsin activity is 23.2 ± 2.1%. The Residual trypsin activity (peptide 9.76 μM) stood at 1.0 ± 0.1%. For the same molecule, the Residual trypsin activity (peptide 97.56 μM) is reported as 0.2 ± 0.1%. The Residual trypsin activity (peptide 292.68 μM) is listed as 0.2 ± 0.2%.

On to `CC[C@H](C)[C@@H]1NC(=O)[C@@H]2CCCN2C(=O)[C@@H]2CCCN2C(=O)[C@H]([C@@H](C)CC)NC(=O)[C@H](CO)NC(=O)[C@H](CCCCN)NC(=O)[C@H](C)NC(=O)[C@H](C)NC(=O)[C@H](CCCNC(=N)N)NC(=O)CNC(=O)[C@@H](N)CSSC[C@@H](C(=O)N[C@@H](Cc2ccccc2)C(=O)O)NC1=O` [BT26] (H-CGRAAKSIPPICF-OH; disulfide 1-12; N-terminus and C-terminus assumed), for which the Residual trypsin activity is, setting by setting: (peptide 0.0098 μM) 99.5 ± 0.9%; (peptide 0.098 μM) 100.2 ± 1.4%; (peptide 0.98 μM) 94.5 ± 0.7%; (peptide 1.95 μM) 77.6 ± 3.1%; (peptide 2.439 μM) 55.1 ± 1.3%; (peptide 3.90 μM) 1.4 ± 0.1%. Moreover, the Residual trypsin activity is 0.4 ± 0.1% (peptide 9.76 μM), 0.1 ± 0.0% (peptide 97.56 μM) and 0.5 ± 0.0% (peptide 975.61 μM).

Values taken from patent US20230416329A1, “A PEPTIDE WITH DISULFIDE BONDS AND INHIBITORY ACTIVITY AGAINST SERINE PROTEASES, DERIVED HYBRID PEPTIDES THEREOF, AND USES THEREOF” (INSTITUTE OF MATERIA MEDICA , CHINESE ACADEMY OF MEDICAL …, priority 2020, published 2023).
